Measurements from paper PMC10041525, “New Dual Inhibitors of Bacterial Topoisomerases with Broad-Spectrum Antibacterial Activity and In Vivo Efficacy against Vancomycin-Intermediate Staphylococcus aureus” (Journal of Medicinal Chemistry, 2023).
Values after ≈ are worked out from the molar mass of the structure shown. Values joined by “and” are separate entries in the source; they are usually repeats but may differ in a detail not shown here. Equal values may be shown once. Read-outs that look alike come from different tables or passages of the source.

Experiments:
[1] = test system: 100 A. baumannii strains (50 MDR, 50 non-MDR); test: MIC broth microdilution at IHMA Europe, panel of 100 strains; assay type: cell-based; settings: for MIC / MIC50 / MIC90: Acinetobacter baumannii; for MIC50: read-out: MIC 50; for MIC90: read-out: MIC 90
[2] = test system: Haemophilus influenzae (n = 14); test: MIC broth microdilution at IHMA Europe; assay type: cell-based, H. influenzae; settings: for MIC: Haemophilus influenzae, read-out: MIC
E. faecalis ATCC 29212 = test: IHMA QC MIC; assay type: cell-based
Excerpt: Supplement jm2c01905_si_004.xlsx, sheet "QC" | column: MIC [µg/mL]

## Cc1[nH]c(C(=O)Nc2nc3c(N4[C@@H]5CC[C@H]4COC5)cc(C(=O)O)cc3s2)c(Cl)c1Cl [7h, 4-((1R,5S)-3-Oxa-8-azabicyclo[3.2.1]octan-8-yl)-2-(3,4-dichloro-5-methyl-1H-pyrrole-2-carboxamido)benzo[d]thiazole-6-carboxylic Acid]
[1]; A. baumannii IHMA 2035089, Serbia 2019, MDR, read-out: MIC
  MIC: 2 µg/mL (≈ 4.15 µM)
[1]; A. baumannii IHMA 2035134, Serbia 2019, Non-MDR, read-out: MIC
  MIC: 2 µg/mL (≈ 4.15 µM)
[1]; A. baumannii IHMA 2038976, Hungary 2019, MDR, read-out: MIC
  MIC: 2 µg/mL (≈ 4.15 µM)
[1]; A. baumannii IHMA 2051503, Serbia 2019, MDR, read-out: MIC
  MIC: 2 µg/mL (≈ 4.15 µM)
[1]; A. baumannii IHMA 2058329, Slovenia 2019, Non-MDR, read-out: MIC
  MIC: 4 µg/mL (≈ 8.31 µM)
[1]; A. baumannii IHMA 2065587, France 2019, Non-MDR, read-out: MIC
  MIC: 1 µg/mL (≈ 2.08 µM)
[1]; A. baumannii IHMA 2099294, United Kingdom 2019, Non-MDR, read-out: MIC
  MIC: 2 µg/mL (≈ 4.15 µM)
[1]; A. baumannii IHMA 2129256, Qatar 2019, Non-MDR, read-out: MIC
  MIC: 4 µg/mL (≈ 8.31 µM)
[1]; A. baumannii IHMA 2154584, Israel 2020, MDR, read-out: MIC
  MIC: 2 µg/mL (≈ 4.15 µM)
[1]; A. baumannii IHMA 2155340, Kenya 2020, MDR, read-out: MIC
  MIC: 2 µg/mL (≈ 4.15 µM)
[1]; A. baumannii IHMA 2156634, Turkey 2020, MDR, read-out: MIC
  MIC: 2 µg/mL (≈ 4.15 µM)
[1]; A. baumannii IHMA 2156709, Turkey 2020, MDR, read-out: MIC
  MIC: 2 µg/mL (≈ 4.15 µM)
[1]; A. baumannii IHMA 2157614, Australia 2020, Non-MDR, read-out: MIC
  MIC: 4 µg/mL (≈ 8.31 µM)
[1]; A. baumannii IHMA 2177232, Lithuania 2020, MDR, read-out: MIC
  MIC: 4 µg/mL (≈ 8.31 µM)
[1]; A. baumannii IHMA 2177489, Lithuania 2020, MDR, read-out: MIC
  MIC: 2 µg/mL (≈ 4.15 µM)
[1]; A. baumannii IHMA 2178574, Ukraine 2020, Non-MDR, read-out: MIC
  MIC: 4 µg/mL (≈ 8.31 µM)
[1]; A. baumannii IHMA 2180134, Malaysia 2020, Non-MDR, read-out: MIC
  MIC: 2 µg/mL (≈ 4.15 µM)
[1]; A. baumannii IHMA 2180142, Malaysia 2020, MDR, read-out: MIC
  MIC: 2 µg/mL (≈ 4.15 µM)
[1]; A. baumannii IHMA 2181370, Morocco 2020, MDR, read-out: MIC
  MIC: 2 µg/mL (≈ 4.15 µM)
[1]; A. baumannii IHMA 2183729, Argentina 2020, MDR, read-out: MIC
  MIC: 4 µg/mL (≈ 8.31 µM)
[1]; A. baumannii IHMA 2183849, Argentina 2020, Non-MDR, read-out: MIC
  MIC: 2 µg/mL (≈ 4.15 µM)
[1]; A. baumannii IHMA 2184382, Japan 2020, Non-MDR, read-out: MIC
  MIC: 2 µg/mL (≈ 4.15 µM)
[1]; A. baumannii IHMA 2193375, Venezuela 2020, MDR, read-out: MIC
  MIC: 2 µg/mL (≈ 4.15 µM)
[1]; A. baumannii IHMA 2193485, Venezuela 2020, Non-MDR, read-out: MIC
  MIC: 1 µg/mL (≈ 2.08 µM)
[1]; A. baumannii IHMA 2193607, Venezuela 2020, MDR, read-out: MIC
  MIC: 2 µg/mL (≈ 4.15 µM)
[1]; A. baumannii IHMA 2195460, Italy 2020, MDR, read-out: MIC
  MIC: 2 µg/mL (≈ 4.15 µM)
[1]; A. baumannii IHMA 2196914, South Africa 2020, MDR, read-out: MIC
  MIC: 2 µg/mL (≈ 4.15 µM)
[1]; A. baumannii IHMA 2196959, South Africa 2020, MDR, read-out: MIC
  MIC: 2 µg/mL (≈ 4.15 µM)
[1]; A. baumannii IHMA 2203763, Spain 2020, MDR, read-out: MIC
  MIC: 4 µg/mL (≈ 8.31 µM)
[1]; A. baumannii IHMA 2205144, Korea, South 2020, MDR, read-out: MIC
  MIC: 2 µg/mL (≈ 4.15 µM)
[1]; A. baumannii IHMA 2206459, Taiwan 2020, MDR, read-out: MIC
  MIC: 2 µg/mL (≈ 4.15 µM)
[1]; A. baumannii IHMA 2206507, Taiwan 2020, Non-MDR, read-out: MIC
  MIC: 1 µg/mL (≈ 2.08 µM)
[1]; A. baumannii IHMA 2212575, Hungary 2020, Non-MDR, read-out: MIC
  MIC: 4 µg/mL (≈ 8.31 µM)
[1]; A. baumannii IHMA 2215307, Hong Kong 2020, Non-MDR, read-out: MIC
  MIC: 2 µg/mL (≈ 4.15 µM)
[1]; A. baumannii IHMA 2216586, Taiwan 2020, MDR, read-out: MIC
  MIC: 2 µg/mL (≈ 4.15 µM)
[1]; A. baumannii IHMA 2223200, Colombia 2020, Non-MDR, read-out: MIC
  MIC: 2 µg/mL (≈ 4.15 µM)
[1]; A. baumannii IHMA 2224017, Panama 2020, MDR, read-out: MIC
  MIC: 4 µg/mL (≈ 8.31 µM)
[1]; A. baumannii IHMA 2224303, Panama 2020, Non-MDR, read-out: MIC
  MIC: 4 µg/mL (≈ 8.31 µM)
[1]; A. baumannii IHMA 2231797, Greece 2020, MDR, read-out: MIC
  MIC: 2 µg/mL (≈ 4.15 µM)
[1]; A. baumannii IHMA 2233099, Guatemala 2020, MDR, read-out: MIC
  MIC: 4 µg/mL (≈ 8.31 µM)
[1]; A. baumannii IHMA 2233430, Kazakhstan 2020, MDR, read-out: MIC
  MIC: 2 µg/mL (≈ 4.15 µM)
[1]; A. baumannii IHMA 2233548, Kazakhstan 2020, Non-MDR, read-out: MIC
  MIC: 4 µg/mL (≈ 8.31 µM)
[1]; A. baumannii IHMA 2238964, Thailand 2020, MDR, read-out: MIC
  MIC: 4 µg/mL (≈ 8.31 µM)
[1]; A. baumannii IHMA 2239052, Thailand 2020, Non-MDR, read-out: MIC
  MIC: 4 µg/mL (≈ 8.31 µM)
[1]; A. baumannii IHMA 2261047, Belgium 2020, MDR, read-out: MIC
  MIC: 4 µg/mL (≈ 8.31 µM)
[1]; A. baumannii IHMA 2261633, Canada 2020, Non-MDR, read-out: MIC
  MIC: 4 µg/mL (≈ 8.31 µM)
[1]; A. baumannii IHMA 2274234, South Africa 2020, MDR, read-out: MIC
  MIC: 2 µg/mL (≈ 4.15 µM)
[1]; A. baumannii IHMA 2274364, South Africa 2020, MDR, read-out: MIC
  MIC: 2 µg/mL (≈ 4.15 µM)
[1]; A. baumannii IHMA 2275237, Chile 2020, Non-MDR, read-out: MIC
  MIC: 2 µg/mL (≈ 4.15 µM)
[1]; A. baumannii IHMA 2275751, Jordan 2020, MDR, read-out: MIC
  MIC: 2 µg/mL (≈ 4.15 µM)
[1]; A. baumannii IHMA 2316205, United States 2020, MDR, read-out: MIC
  MIC: 2 µg/mL (≈ 4.15 µM)
[1]; MDR n = 50, read-out: MAX (maximum MIC; all strains inhibited)
  MIC: 4 µg/mL (≈ 8.31 µM)
[1]; MDR n = 50
  MIC50: 2 µg/mL (≈ 4.15 µM)
  MIC90: 4 µg/mL (≈ 8.31 µM)
  MAX (maximum MIC; all strains inhibited): 4 µg/mL
[1]; MDR n = 50, read-out: MIN (minimum MIC)
  MIC: 1 µg/mL (≈ 2.08 µM)
[1]; all isolates n = 100, read-out: MAX (maximum MIC; all strains inhibited)
  MIC: 8 µg/mL (≈ 16.6 µM)
[1]; all isolates n = 100
  MIC50: 2 µg/mL (≈ 4.15 µM)
  MIC90: 4 µg/mL (≈ 8.31 µM)
  MAX (maximum MIC; all strains inhibited): 8 µg/mL
[1]; all isolates n = 100, read-out: MIN (minimum MIC)
  MIC: 1 µg/mL (≈ 2.08 µM)
[1]; non-MDR n = 50, read-out: MAX (maximum MIC)
  MIC: 8 µg/mL (≈ 16.6 µM)
[1]; non-MDR n = 50
  MIC50: 2 µg/mL (≈ 4.15 µM)
  MIC90: 4 µg/mL (≈ 8.31 µM)
[1]; non-MDR n = 50, read-out: MIN (minimum MIC)
  MIC: 1 µg/mL (≈ 2.08 µM)
[2]
  No. of isolates at MIC: 5 and 4
[2]; H. influenzae IHMA N° 1227715
  MIC: 0.12 µg/mL (≈ 0.249 µM)
[2]; H. influenzae IHMA N° 1241620
  MIC: 0.12 µg/mL (≈ 0.249 µM)
[2]; H. influenzae IHMA N° 1244149
  MIC: 0.5 µg/mL (≈ 1.04 µM)
[2]; H. influenzae IHMA N° 1249803
  MIC: 0.12 µg/mL (≈ 0.249 µM)
[2]; H. influenzae IHMA N° 1254355
  MIC: 0.25 µg/mL (≈ 0.519 µM)
[2]; H. influenzae IHMA N° 1258580
  MIC: 0.5 µg/mL (≈ 1.04 µM)
[2]; H. influenzae IHMA N° 1262734
  MIC: 0.25 µg/mL (≈ 0.519 µM)
[2]; H. influenzae IHMA N° 1272723
  MIC: 0.12 µg/mL (≈ 0.249 µM)
[2]; H. influenzae IHMA N° 1286846
  MIC: 0.5 µg/mL (≈ 1.04 µM)
[2]; H. influenzae IHMA N° 1337530
  MIC: 0.12 µg/mL (≈ 0.249 µM)
[2]; H. influenzae IHMA N° 1440085
  MIC: 0.5 µg/mL (≈ 1.04 µM)
[2]; H. influenzae IHMA N° 1479509
  MIC: 1 µg/mL (≈ 2.08 µM)
[2]; H. influenzae IHMA N° 1952952
  MIC: 0.25 µg/mL (≈ 0.519 µM)
[2]; H. influenzae IHMA N° 2047461
  MIC: 0.25 µg/mL (≈ 0.519 µM)
[2]; MIC 0.5 µg/mL
  Cumulative % at MIC: 92.9%
[2]; MIC 1 µg/mL
  Cumulative % at MIC: 100.0%
  No. of isolates at MIC: 1
[2]; n = 14
  MIC, all isolates: ≤ 1 µg/mL
E. faecalis ATCC 29212; Enterococcus faecalis, ATCC29212
  MIC: ≤ 0.03 µg/mL
E. faecalis ATCC 29212; QC strain E. faecalis ATCC 29212, test date 2021-11-26
  MIC: ≤0,03 µg/mL
